This passage reports IC50 and concentration results from patent US20250051337A1 (priority 2021, published 2025).

Series [1] concerns the target STK3 (Homo sapiens (Human), UniProt Q13188). In words: ADP-Glo kinase assay, STK3. Format: biochemical. A digest of the protocol:
(§1)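 Full-length recombinant human STK3 (50 ng) phosphorylated 250 μg/mL myelin basic protein, and full-length STK4 (50 ng) phosphorylated 300 μg/mL Axltide, both at 50 μM ATP; ADP formed detected by ADP-Glo. Three experiments, each in triplicate.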
On the technique in general: ADP-Glo turns the ADP formed in a reaction into a luminescent signal.

Series [2] concerns the target STK4 (Homo sapiens (Human), UniProt Q13043). In words: ADP-Glo kinase assay, STK4. Format: biochemical. The method, boiled down:
as §1

The nature of series [3]: In vivo plasma and liver concentrations, 20 mg/kg intraperitoneal. The settings on record: female, C57BL/6J, mouse, ip, 20 mg/kg. On the procedure: All animal procedures were approved by the Sanford Burnham Prebys Medical Discovery Institute Institutional Animal Care and Use Committee and were performed according to the NIH guidelines for the Care and Use of Laboratory Animals. Adult female C57BL/6J mice were purchased from Jackson Laboratories and housed with free access to food and water on a 12 h light/dark cycle. Compounds were formulated in 5% DMSO, 10% Tween-80, and 85% H2O and injected intraperitoneally at 10 or 20 mg/kg. Blood samples were collected retro-orbitally at the indicated times and plasma was prepared by centrifugation. Livers were collected post mortem at the indicated times.
For quantification of compound, plasma samples were extracted with acetonitrile: water 4:1 with 0.1% formic acid containing indomethacin as an internal standard. Samples were centrifuged and the supernatants were diluted with acetonitrile: water and analyzed by LC-MS/MS using a Shimadzu Nexera X2 High-performance liquid chromatography (HPLC) (Shimadzu Scientific Instruments: Kyoto, Japan) coupled to an AB Sciex 6500 QTRAP (AB Sciex LLC: Toronto, Canada).
Adult female C57BL/6 mice (n=3/group) were intraperitoneally injected with vehicle or test compound (20 mg/kg), and blood samples and livers were collected at 30 min and 1 h post-injection, respectively. Plasma concentrations of all 13 compounds were >1.4 μM at 30 min after injection, and 10 compounds had liver concentrations >1.0 μM at 1 h after injection, as measured by LC-MS/MS, with particularly high plasma concentrations obtained with compounds 11 (15.9 μM), 16 (11.6 μM) and 105 (8.7 μM) (Table 5). To evaluate target engagement in vivo, the total and phosphorylated MOB1 levels in livers collected at 1 h post-injection was examined.
Tween 80 and water and were administered to mice by intraperitoneal injection. Blood samples and livers were collected at 30 min and 1 h post-dose, respectively. Plasma concentrations and relative pMOB1 levels were determined by LC-MS/MS and western blot analysis, respectively. (n=3).

Where [4] appears, read: ADP-Glo, 50 μM ATP, read-out: STK3 IC50.
Setting [5] is: ADP-Glo, 50 μM ATP, read-out: STK4 IC50.

SMILES strings stand for the structures. Read-outs that look alike come from different tables or passages of the source.

Chain of STK4 (Q13043 whole entry): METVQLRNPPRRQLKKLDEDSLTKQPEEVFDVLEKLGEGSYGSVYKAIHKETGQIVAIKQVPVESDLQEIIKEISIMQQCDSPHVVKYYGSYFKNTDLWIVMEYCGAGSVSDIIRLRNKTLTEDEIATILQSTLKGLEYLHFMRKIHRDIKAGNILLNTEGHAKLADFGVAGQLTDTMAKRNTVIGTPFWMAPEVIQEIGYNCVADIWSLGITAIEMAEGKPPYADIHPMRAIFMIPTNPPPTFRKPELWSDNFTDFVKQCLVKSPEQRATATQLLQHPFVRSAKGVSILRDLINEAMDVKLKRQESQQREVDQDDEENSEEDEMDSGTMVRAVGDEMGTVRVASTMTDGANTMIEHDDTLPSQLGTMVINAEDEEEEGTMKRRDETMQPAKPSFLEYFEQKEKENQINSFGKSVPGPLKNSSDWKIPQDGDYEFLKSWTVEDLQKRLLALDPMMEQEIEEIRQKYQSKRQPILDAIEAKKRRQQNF
Chain of STK3 (Q13188 whole entry): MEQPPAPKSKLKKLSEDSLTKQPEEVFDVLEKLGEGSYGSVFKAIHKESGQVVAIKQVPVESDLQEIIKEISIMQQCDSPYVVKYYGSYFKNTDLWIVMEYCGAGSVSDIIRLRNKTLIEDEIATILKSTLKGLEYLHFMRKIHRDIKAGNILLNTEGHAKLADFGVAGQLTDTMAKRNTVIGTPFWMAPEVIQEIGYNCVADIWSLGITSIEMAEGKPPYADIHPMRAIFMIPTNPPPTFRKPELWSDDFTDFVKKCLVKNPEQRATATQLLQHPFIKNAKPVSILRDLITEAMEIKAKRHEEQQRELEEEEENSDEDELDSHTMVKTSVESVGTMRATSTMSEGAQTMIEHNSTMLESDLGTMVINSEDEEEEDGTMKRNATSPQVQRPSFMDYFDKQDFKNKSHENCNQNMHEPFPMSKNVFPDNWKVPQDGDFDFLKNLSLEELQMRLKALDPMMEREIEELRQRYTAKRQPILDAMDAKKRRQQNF

As for `c1nc(N2CCOCC2)c2c(-c3cnoc3)c[nH]c2n1` [Compound 42, 4-(5-(isoxazol-4-yl)-7H-pyrrolo[2,3-d]pyrimidin-4-yl)morpholine], the values for the half-maximal inhibitory concentration (IC50) in series [1] (setting [4]) and in series [2] (setting [5]) were 1 to 5 µM and less than 1 µM, respectively.
For the compound `Cc1ccc(CNc2ncnc3[nH]cc(-c4cccc(Cl)c4)c23)cc1C` [Compound 85, 5-(3-chlorophenyl)-N-(3,4-dimethylbenzyl)-7H-pyrrolo[2,3-d]pyrimidin-4-amine], the IC50 in series [1] (setting [4]) and in series [2] (setting [5]) was more than 5 µM in each case.
As to `Clc1cccc(-c2c[nH]c3ncnc(NCC4CCOCC4)c23)c1` [Compound 61, 5-(3-chlorophenyl)-N-((tetrahydro-2H-pyran-4-yl)methyl)-7H-pyrrolo[2,3-d]pyrimidin-4-amine], the IC50 is 1 to 5 µM in series [1] (setting [4]) and less than 1 µM in series [2] (setting [5]).
For the compound `Clc1cccc(-c2n[nH]c3ncnc(N4CCOCC4)c23)c1` [Compound 19, 4-(3-(3-chlorophenyl)-1H-pyrazolo[3,4-d]pyrimidin-4-yl)morpholine], the IC50 in series [1] and in series [2] was 1 to 5 µM in each case.
For `CN1CCC(Nc2ncnc3[nH]cc(-c4cccc(Cl)c4)c23)CC1` [Compound 65, 5-(3-chlorophenyl)-N-(1-methylpiperidin-4-yl)-7H-pyrrolo[2,3-d]pyrimidin-4-amine], the 50% inhibitory concentration (IC50) in series [1] (setting [4]) and in series [2] (setting [5]) was 1 to 5 µM throughout.
As to `Clc1cccc(-c2coc3nccc(N4CCOCC4)c23)c1` [Compound 94, 3-(3-chlorophenyl)-4-morpholinofuro[2,3-b]pyridine], the 50% inhibitory concentration (IC50) in series [1] (setting [4]) and in series [2] (setting [5]) was more than 5 µM in each case.
`CCN(CC)CCNc1ncnc2[nH]cc(-c3cccc(Cl)c3)c12` [Compound 82, N1-(5-(3-chlorophenyl)-7H-pyrrolo[2,3-d]pyrimidin-4-yl)-N2,N2-diethylethane-1,2-diamine]: the IC50 in series [1] (setting [4]) and in series [2] (setting [5]) was more than 5 µM in each case.
Consider `CC1(N)CCN(c2ncnc3[nH]cc(-c4cccc(Cl)c4)c23)CC1` [Compound 102, 1-(5-(3-chlorophenyl)-7H-pyrrolo[2,3-d]pyrimidin-4-yl)-4-methylpiperidin-4-amine], for which, in series [3], the concentration at 30 min is 1.4 µM and the concentration at 1 h came to 15.9 µM. In series [1] (setting [4]), the 50% inhibitory concentration (IC50) was less than 1 µM.
Turning to `CC(=O)c1ccc(-c2c[nH]c3ncnc(N4CCOCC4)c23)cc1` [Compound 29, 1-(4-(4-morpholino-7H-pyrrolo[2,3-d]pyrimidin-5-yl)phenyl)ethan-1-one], the 50% inhibitory concentration (IC50) was more than 5 µM in series [1] (setting [4]) and 1 to 5 µM in series [2] (setting [5]).
For `CS(=O)(=O)c1cccc(-c2c[nH]c3ncnc(N4CCOCC4)c23)c1` [Compound 39, 4-(5-(3-(methylsulfonyl)phenyl)-7H-pyrrolo[2,3-d]pyrimidin-4-yl)morpholine], the IC50 in series [1] (setting [4]) and in series [2] (setting [5]) was more than 5 µM throughout.
`CN(C)CCNc1ncnc2[nH]cc(-c3cccc(Cl)c3)c12` [Compound 57, N1-(5-(3-chlorophenyl)-7H-pyrrolo[2,3-d]pyrimidin-4-yl)-N2,N2-dimethylethane-1,2-diamine]: the 50% inhibitory concentration (IC50) in series [1] (setting [4]) and in series [2] (setting [5]) was more than 5 µM each time.
For `Clc1cccc(-c2c[nH]c3ncnc(N4CCC(Cc5ccccc5)CC4)c23)c1` [Compound 90, 4-(4-benzylpiperidin-1-yl)-5-(3-chlorophenyl)-7H-pyrrolo[2,3-d]pyrimidine], the IC50 in series [1] (setting [4]) and in series [2] (setting [5]) was more than 5 µM in each case.
On to `CCCNc1ncnc2[nH]cc(-c3cccc(Cl)c3)c12` [Compound 50, 5-(3-chlorophenyl)-N-propyl-7H-pyrrolo[2,3-d]pyrimidin-4-amine], for which the IC50 in series [1] (setting [4]) and in series [2] (setting [5]) was less than 1 µM each time.
Turning to `OCCNc1ncnc2[nH]cc(-c3cccc(Cl)c3)c12` [Compound 54, 2-((5-(3-chlorophenyl)-7H-pyrrolo[2,3-d]pyrimidin-4-yl)amino)ethan-1-ol], the IC50 in series [1] (setting [4]) and in series [2] (setting [5]) was less than 1 µM in each case.
Regarding `Clc1ccc(-c2c[nH]c3ncnc(N4CCOCC4)c23)cc1Cl` [Compound 30, 4-(5-(3,4-dichlorophenyl)-7H-pyrrolo[2,3-d]pyrimidin-4-yl)morpholine], the concentration for half-maximal inhibition (IC50) in series [1] (setting [4]) and in series [2] (setting [5]) was 1 to 5 µM in each case.
`Cn1cc(-c2cccc(Cl)c2)c2c(N3CCOCC3)ncnc21` [Compound 95, 4-(5-(3-chlorophenyl)-7-methyl-7H-pyrrolo[2,3-d]pyrimidin-4-yl)morpholine]: the IC50 in series [1] (setting [4]) and in series [2] (setting [5]) was more than 5 µM each time.
For `CN1CCN(c2ncnc3[nH]cc(-c4cccc(Cl)c4)c23)CC1` [Compound 47, 5-(3-chlorophenyl)-4-(4-methylpiperazin-1-yl)-7H-pyrrolo[2,3-d]pyrimidine], the half-inhibitory concentration (IC50) in series [1] (setting [4]) and in series [2] (setting [5]) was 1 to 5 µM throughout.
Take `Fc1c(-c2c[nH]c3ncnc(N4CCOCC4)c23)ccnc1Cl` [Compound 33, 4-(5-(2-chloro-3-fluoropyridin-4-yl)-7H-pyrrolo[2,3-d]pyrimidin-4-yl)morpholine]: the IC50 in series [1] (setting [4]) and in series [2] (setting [5]) was more than 5 µM throughout.
For the compound `FC(F)(F)CNc1ncnc2[nH]cc(-c3cccc(Cl)c3)c12` [Compound 55, 5-(3-chlorophenyl)-N-(2,2,2-trifluoroethyl)-7H-pyrrolo[2,3-d]pyrimidin-4-amine], the half-maximal inhibitory concentration (IC50) in series [1] (setting [4]) was 1 to 5 µM; in series [2] (setting [5]), less than 1 µM.
Taken in the same sequence, the figures for `FC(F)(F)Oc1ccc(-c2c[nH]c3ncnc(N4CCOCC4)c23)cc1` [Compound 28, 4-(5-(4-(trifluoromethoxy)phenyl)-7H-pyrrolo[2,3-d]pyrimidin-4-yl)morpholine] were 1 to 5 µM and 1 to 5 µM.
In the case of `Clc1cccc(-c2c[nH]c3ncnc(NCc4cnc[nH]4)c23)c1` [Compound 76, N-((1H-imidazol-5-yl)methyl)-5-(3-chlorophenyl)-7H-pyrrolo[2,3-d]pyrimidin-4-amine], the IC50 in series [1] (setting [4]) and in series [2] (setting [5]) was more than 5 µM each time.
For `O=C(O)c1ccc(Nc2nc(N3CCOCC3)c3c(-c4cccc(Cl)c4)c[nH]c3n2)cc1` [Compound 100, 4-((5-(3-chlorophenyl)-4-morpholino-7H-pyrrolo[2,3-d]pyrimidin-2-yl)amino)benzoic acid], the IC50 in series [1] (setting [4]) was 1 to 5 µM; in series [2] (setting [5]) it was less than 1 µM.
As to `Fc1cnc(Cl)cc1-c1c[nH]c2ncnc(N3CCOCC3)c12` [Compound 32, 4-(5-(2-chloro-5-fluoropyridin-4-yl)-7H-pyrrolo[2,3-d]pyrimidin-4-yl)morpholine], the IC50 in series [1] (setting [4]) is more than 5 µM; in series [2] (setting [5]), 1 to 5 µM.
On to `COc1ccc(-c2c[nH]c3ncnc(N4CCOCC4)c23)cc1` [Compound 26, 4-(5-(4-methoxyphenyl)-7H-pyrrolo[2,3-d]pyrimidin-4-yl)morpholine], for which the IC50 was 1 to 5 µM in series [1] (setting [4]) and less than 1 µM in series [2] (setting [5]).
Regarding `Clc1cccc(-c2c[nH]c3ncnc(N4CCCC4)c23)c1` [Compound 44, 5-(3-chlorophenyl)-4-(pyrrolidin-1-yl)-7H-pyrrolo[2,3-d]pyrimidine], the half-inhibitory concentration (IC50) in series [1] (setting [4]) and in series [2] (setting [5]) was less than 1 µM throughout.
Take `CC(C)CCNc1ncnc2[nH]cc(-c3cccc(Cl)c3)c12` [Compound 64, 5-(3-chlorophenyl)-N-isopentyl-7H-pyrrolo[2,3-d]pyrimidin-4-amine]: the IC50 in series [1] (setting [4]) and in series [2] (setting [5]) was 1 to 5 µM in each case.

Usually IC50 stands for the midpoint of a concentration-inhibition curve.
